Measurements reported in US8846933B2, “N-link hydroxamic acid derivatives useful as antibacterial agents” (Pfizer Inc., priority 2009, dated 2014).

Columns and labels:
Format in all cases: cell-based
[1] = tested on: Escherichia coli EC-1: VOGEL, mouse virulent; assay: MIC determination (CLSI), strain EC-1; conditions: Escherichia coli EC-1, VOGEL, mouse virulent; unit assumed
Procedure, shortened: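 The mouse-virulent VOGEL isolate of E. coli, EC-1, served as test organism. Minimum inhibitory concentration was measured by CLSI dilution methodology (M7-A7; M100-S18 standards).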

[2] = tested on: Pseudomonas aeruginosa UI-18: Wild-type (PA-7); assay: MIC determination (CLSI), strain PA-7; conditions: Pseudomonas aeruginosa UI-18, wild-type; unit assumed
Procedure, shortened: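 MIC determined by broth dilution per CLSI M7-A7 guidelines with M100-S18 interpretive standards. Test organism: wild-type Pseudomonas aeruginosa UI-18, designated PA-7.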

[3] = tested on: Acinetobacter baumanii/haemolyticus: Multidrug-resistant clinical isolate (AB-3167); assay: MIC determination (CLSI), strain AB-3167; conditions: unit assumed
Procedure, shortened: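 MIC measured by broth dilution per CLSI guidelines (M7-A7, M100-S18) against multidrug-resistant clinical isolate AB-3167 of Acinetobacter baumanii/haemolyticus.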

| Compound | EC-1 (MIC) [1] | PA-7 (MIC) [2] | AB-3167 (MIC) [3] |
| --- | --- | --- | --- |
| CC(CCn1ccc(OCCC2CCCC2)cc1=O)(C(=O)NO)S(C)(=O)=O (stereo not drawn) [Example 68-S, 4-[4-(2-cyclopentylethoxy)-2-oxopyridin-1(2H)-yl]-N-hydroxy-2-methyl-2-(methylsulfonyl)butanamide] | 16 mg/L | 32 mg/L | 64 mg/L |
| C[C@@](CCn1ccc(-c2cccc(F)c2F)cc1=O)(C(=O)NO)S(C)(=O)=O [Example 14, (2R)-4-[4-(2,3-difluorophenyl)-2-oxopyridin-1(2H)-yl]-N-hydroxy-2-methyl-2-(methylsulfonyl)butanamide] | 0.5 mg/L | 0.5 mg/L | > 64 mg/L |
| CC(CCn1ccc(-c2cc3ccccc3o2)cc1=O)(C(=O)NO)S(C)(=O)=O (racemic) [Example 33, (+/−)-4-[4-(1-benzofuran-2-yl)-2-oxopyridin-1(2H)-yl]-N-hydroxy-2-methyl-2-(methylsulfonyl)butanamide] | 1 mg/L | 2 mg/L | > 64 mg/L |
| C[C@@](CCn1ccc(-c2ccc(OC(F)(F)[C@H]3CC[C@H](O)CC3)cc2)cc1=O)(C(=O)NO)S(C)(=O)=O [Example 60, (2R)-4-[4-{4-[difluoro(trans-4-hydroxycyclohexyl)methoxy]phenyl}-2-oxopyridin-1(2H)-yl]-N-hydroxy-2-methyl-2-(methylsulfonyl)butanamide] | 0.125 mg/L | 1 mg/L | 32 mg/L |
| COc1cnn(-c2ccc(-c3ccn(CC[C@](C)(C(=O)NO)S(C)(=O)=O)c(=O)c3)cc2)n1 [Example 58, (2R)-N-hydroxy-4-{4-[4-(4-methoxy-2H-1,2,3-triazol-2-yl)phenyl]-2-oxopyridin-1(2H)-yl}-2-methyl-2-(methylsulfonyl)butanamide] | 0.03 mg/L | 0.5 mg/L | > 64 mg/L |
| COc1ccc(-c2ccn(CC[C@](C)(C(=O)NO)S(C)(=O)=O)c(=O)c2)cc1 [Example 17, (2R)-N-hydroxy-4-[4-(4-methoxyphenyl)-2-oxopyridin-1(2H)-yl]-2-methyl-2-(methylsulfonyl)butanamide] | 0.5 mg/L | 0.5 mg/L | > 64 mg/L |
| CC1(O)CC(COc2ccc(-c3ccn(CC[C@](C)(C(=O)NO)S(C)(=O)=O)c(=O)c3)cc2)C1 (stereo partly drawn) [Example 10-B, (2R)-N-hydroxy-4-[4-{4-[(3-hydroxy-3-methylcyclobutyl)methoxy]phenyl}-2-oxopyridin-1(2H)-yl]-2-methyl-2-(methylsulfonyl)butanamide] | 0.5 mg/L | 1 mg/L | > 64 mg/L |
| CCC(=O)c1ccc(-c2ccn(CC[C@](C)(C(=O)NO)S(C)(=O)=O)c(=O)c2)cc1 [Example 68-G, (2R)-N-hydroxy-2-methyl-2-(methylsulfonyl)-4-[2-oxo-4-(4-propionylphenyl)pyridin-1(2H)-yl]butanamide] | 0.5 mg/L | 1 mg/L | > 64 mg/L |
